Results taken from patent US20210115104A1, “AMYLIN ANALOGUES” (Zealand Pharma A/S, priority 2015, published 2021).
*1 amine or outer side, *2 acyl side, *3 side chain or, on linkers, in order; H or OH if unused. Where a SMILES comes first, the peptide text is derived from it. Bridges are numbered along the chain shown (N, C = ends). [ ]: non-standard residue; d: D form. The star is where a group is joined. C20 diacid = O=C(O)CCCCCCCCCCCCCCCCCCC(=O)*; γGlu = O=C(O)[C@H](CCC(=O)[*:2])N[*:1]; Hyp = O=C(O)[C@@H]1C[C@@H](O)CN1; NMeI = CC[C@H](C)[C@H](NC)C(=O)O; Aad = N[C@@H](CCCC(=O)O)C(=O)O; Sar = CNCC(=O)O

How the values were obtained:
[1] = Pharmacokinetic (PK) profiling in rats; format: in vivo, rat; design: CI/F (apparent clearance values): unit not given here; details: Sprague Dawley male rats, single sc 30 nmol/kg; for half-life: rat, plasma, read-out: Plasma terminal elimination half-life t1/2 (converted)
Outline: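 Male Sprague Dawley rats received a single sc dose of 30 nmol/kg in mannitol-containing histidine buffer (pH 7.0), with tail-vein sampling before dosing and at 24–168 hours. Plasma was ethanol-precipitated and assayed by LC-MS/MS. Non-compartmental analysis of mean concentrations gave t1/2 as ln(2)/λz and CL/F as dose/AUCinf.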

Sprague Dawley rats = test: Oral glucose tolerance test (OGTT) in rats; format: in vivo, rat; details: fasted rats, 30 nmol/kg sc 16 hours before oral glucose bolus 2 g/kg
Protocol: Male Sprague Dawley rats [Crl:CD(SD), weight range 260-280 g upon arrival] were housed in groups of 2 (n=2) or 3 (n=3). The animals were maintained on a 12 h/12 h light/dark cycle. Animals had access ad libitum to a standard chow diet and tap water (domestic quality tap water) during the initial one week acclimatization period.
Fasted rats (fasted for 7 hours) were employed in the test. Rats had previously been randomized into two groups, designated test group and control group, respectively. The total number of animals per group was 10 (n=10).
A single subcutaneous injection of either vehicle (control group; vehicle: 50 mM histidine buffer, pH 7, with 200 mM mannitol) or Compound 7 in vehicle [test group; dose 30 nmol/kg body weight (2 ml/kg)] was subsequently administered to each animal. All rats then received an oral glucose bolus (2 g/kg) 16 hours after vehicle or compound administration. Blood glucose levels in tail blood samples taken 20 min. before glucose administration (time zero, baseline) and then 15 min., 30 min., 60 min., 90 min., 120 min. and 180 min after glucose administration were determined using a glucometer (GlucoSmart Swing™; MSP Bodmann GmbH, Germany).
The data are presented as mean±S.E.M. The two-sided unpaired Student t-test was used for statistical comparison of the test group and the control group.

[2] = Assessment of physical stability (Thioflavin T fibrillation); format: physicochemical; design: key: FND = fibrillation not detected; FD = fibrillation detected; details: 1 mg/ml, 40° C., ThT; for Fibrillation pH 4.0 (Ac): 50 mM acetate buffer pH 4.0, 96 hours; for Fibrillation pH 7.0 (His): 50 mM histidine buffer pH 7.0, 96 hours; for Fibrillation pH 7.0 (Phos.): 50 mM phosphate buffer pH 7.0, 96 hours
Outline: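 1 mg/ml peptide with 40 μM ThT in 50 mM phosphate pH 7.0, 50 mM histidine pH 7.0 or 50 mM acetate pH 4.0, in triplicate. Fluorescence read every 10 min after 300 s agitation over 96 h at 40 °C. Lag-time (h) is the intersection of linear fits to stable and growth phases.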

With `CC[C@H](C)[C@@H](C(=O)N[C@@H](CC(C)C)C(=O)N[C@@H](CO)C(=O)N[C@@H](CO)C(=O)N[C@H](C(=O)N[C@@H](CCC(=O)O)C(=O)N[C@H](C(=O)NCC(=O)N[C@@H](CO)C(=O)N[C@@H](CC(N)=O)C(=O)N[C@H](C(=O)N1C[C@H](O)C[C@H]1C(N)=O)[C@@H](C)O)C(C)C)[C@@H](C)O)N(C)C(=O)[C@H](C)NC(=O)CN(C)C(=O)[C@H](Cc1ccccc1)NC(=O)[C@H](CO)NC(=O)[C@H](CO)NC(=O)[C@H](CCCNC(=N)N)NC(=O)[C@H](CCC(N)=O)NC(=O)[C@H](CC(C)C)NC(=O)[C@H](Cc1ccccc1)NC(=O)[C@H](Cc1c[nH]cn1)NC(=O)[C@H](C)NC(=O)[C@H](CC(C)C)NC(=O)[C@H](CCCNC(=N)N)NC(=O)[C@H](CCC(=O)O)NC(=O)[C@@H](NC(=O)[C@H](C)NC(=O)[C@@H]1CSSC[C@H](NC(=O)[C@H](CCCNC(=N)N)NC(=O)CC[C@H](NC(=O)CCCCCCCCCCCCCCCCCCC(=O)O)C(=O)O)C(=O)NCC(=O)N[C@@H]([C@@H](C)O)C(=O)N[C@@H](C)C(=O)N[C@@H]([C@@H](C)O)C(=O)N1)[C@@H](C)O` [Compound 7, [19CD]-isoGlu-R-C( )-GTAT-C( )-ATERLAHFLQRSSF-Gly(Me)-A-Ile(Me)-LSSTEVGSNT-Hyp-NH2] ({C20 diacid-γGlu}-RCGTATCATERLAHFLQRSSF[Sar]A[NMeI]LSSTEVGSNT[Hyp]-NH2; disulfide 2-7) the “CI/F (apparent clearance values)” value [1] was 0.0087, the Glucose AUC, t = 15-180 min.; mean ± S.E.M. (Sprague Dawley rats) was 122 ± 29 mmol·min/L and the “Fibrillation pH 4.0 (Ac)” value [2] was “FND”. The “Fibrillation pH 7.0 (His)” value [2] was “FND” and the “Fibrillation pH 7.0 (Phos.)” value [2] was “FND”.

With `CC[C@H](C)[C@@H](C(=O)N[C@@H](CC(C)C)C(=O)N[C@@H](CO)C(=O)N[C@@H](CO)C(=O)N[C@H](C(=O)N[C@@H](CCC(=O)O)C(=O)N[C@H](C(=O)NCC(=O)N[C@@H](CO)C(=O)N[C@@H](CC(N)=O)C(=O)N[C@H](C(=O)N1C[C@H](O)C[C@H]1C(N)=O)[C@@H](C)O)C(C)C)[C@@H](C)O)N(C)C(=O)[C@H](C)NC(=O)CN(C)C(=O)[C@H](Cc1ccccc1)NC(=O)[C@H](CO)NC(=O)[C@H](CO)NC(=O)[C@H](CCCNC(=N)N)NC(=O)[C@H](CCC(N)=O)NC(=O)[C@H](CC(C)C)NC(=O)[C@H](Cc1ccccc1)NC(=O)[C@H](CCCC(=O)O)NC(=O)[C@H](C)NC(=O)[C@H](CC(C)C)NC(=O)[C@H](CCCNC(=N)N)NC(=O)[C@H](CCC(=O)O)NC(=O)[C@@H](NC(=O)[C@H](C)NC(=O)[C@@H]1CSSC[C@H](NC(=O)[C@H](CCCNC(=N)N)NC(=O)CC[C@H](NC(=O)CCCCCCCCCCCCCCCCCCC(=O)O)C(=O)O)C(=O)NCC(=O)N[C@@H]([C@@H](C)O)C(=O)N[C@@H](C)C(=O)N[C@@H]([C@@H](C)O)C(=O)N1)[C@@H](C)O` [Compound 55, [19CD]-isoGlu-R-C( )-GTAT-C( )-ATERLA-Aad-FLQRSSF-Gly(Me)-A-Ile(Me)-LSSTEVGSNT-Hyp-NH2] ({C20 diacid-γGlu}-RCGTATCATERLA[Aad]FLQRSSF[Sar]A[NMeI]LSSTEVGSNT[Hyp]-NH2; disulfide 2-7) the “CI/F (apparent clearance values)” value [1] was 0.0045, the half-life [1] was 26.2 h and the “Fibrillation pH 4.0 (Ac)” value [2] was “FND”. The “Fibrillation pH 7.0 (His)” value [2] was “FND” and the “Fibrillation pH 7.0 (Phos.)” value [2] was “FND”.

For `CC[C@H](C)[C@@H](C(=O)N[C@@H](CC(C)C)C(=O)N[C@@H](CO)C(=O)N[C@@H](CO)C(=O)N[C@H](C(=O)N[C@@H](CCC(=O)O)C(=O)N[C@H](C(=O)NCC(=O)N[C@@H](CO)C(=O)N[C@@H](CC(N)=O)C(=O)N[C@H](C(=O)N1C[C@H](O)C[C@H]1C(N)=O)[C@@H](C)O)C(C)C)[C@@H](C)O)N(C)C(=O)[C@H](C)NC(=O)CN(C)C(=O)[C@H](Cc1ccccc1)NC(=O)[C@H](CO)NC(=O)[C@H](CO)NC(=O)[C@H](CCCNC(=N)N)NC(=O)[C@H](CCC(N)=O)NC(=O)[C@H](CC(C)C)NC(=O)[C@H](Cc1ccccc1)NC(=O)[C@H](Cc1c[nH]cn1)NC(=O)[C@H](C)NC(=O)[C@H](CC(C)C)NC(=O)[C@H](CCCNC(=N)N)NC(=O)[C@H](CCC(=O)O)NC(=O)[C@@H](NC(=O)[C@H](C)NC(=O)[C@@H]1CSSC[C@H](NC(=O)[C@H](CCCNC(=N)N)NC(=O)CC[C@H](NC(=O)CCCCCCCCCCCCCCCCCCC(=O)O)C(=O)O)C(=O)N[C@@H](CCC(N)=O)C(=O)N[C@@H]([C@@H](C)O)C(=O)N[C@@H](C)C(=O)N[C@@H]([C@@H](C)O)C(=O)N1)[C@@H](C)O` [Compound 57, [19CD]-isoGlu-R-C( )-QTAT-C( )-ATERLAHFLQRSSF-Gly(Me)-A-Ile(Me)-LSSTEVGSNT-Hyp-NH2] ({C20 diacid-γGlu}-RCQTATCATERLAHFLQRSSF[Sar]A[NMeI]LSSTEVGSNT[Hyp]-NH2; disulfide 2-7), the “CI/F (apparent clearance values)” value [1] was 0.0078, the half-life [1] was 17.9 h and the “Fibrillation pH 4.0 (Ac)” value [2] was “FND”. For the same compound, the “Fibrillation pH 7.0 (His)” value [2] was “FND” and the “Fibrillation pH 7.0 (Phos.)” value [2] was “FND”.

For `CC[C@H](C)[C@@H](C(=O)N[C@@H](CC(C)C)C(=O)N[C@@H](CO)C(=O)N[C@@H](CO)C(=O)N[C@H](C(=O)N[C@@H](CCC(=O)O)C(=O)N[C@H](C(=O)NCC(=O)N[C@@H](CO)C(=O)NCC(=O)N[C@H](C(=O)N1C[C@H](O)C[C@H]1C(N)=O)[C@@H](C)O)C(C)C)[C@@H](C)O)N(C)C(=O)[C@H](C)NC(=O)CN(C)C(=O)[C@H](Cc1ccccc1)NC(=O)[C@H](CO)NC(=O)[C@H](CO)NC(=O)[C@H](CCCNC(=N)N)NC(=O)[C@H](CCC(N)=O)NC(=O)[C@H](CC(C)C)NC(=O)[C@H](Cc1ccccc1)NC(=O)[C@H](Cc1c[nH]cn1)NC(=O)[C@H](C)NC(=O)[C@H](CC(C)C)NC(=O)[C@H](CCCNC(=N)N)NC(=O)[C@H](CCC(N)=O)NC(=O)[C@@H](NC(=O)[C@H](C)NC(=O)[C@@H]1CSSC[C@H](NC(=O)[C@H](CCCNC(=N)N)NC(=O)CC[C@H](NC(=O)CCCCCCCCCCCCCCCCCCC(=O)O)C(=O)O)C(=O)N[C@@H](CC(N)=O)C(=O)N[C@@H]([C@@H](C)O)C(=O)N[C@@H](C)C(=O)N[C@@H]([C@@H](C)O)C(=O)N1)[C@@H](C)O` [Compound 71, [19CD]-isoGlu-R-C( )-NTAT-C( )-ATQRLAHFLQRSSF-Gly(Me)-A-Ile(Me)-LSSTEVGSGT-Hyp-NH2] ({C20 diacid-γGlu}-RCNTATCATQRLAHFLQRSSF[Sar]A[NMeI]LSSTEVGSGT[Hyp]-NH2; disulfide 2-7), the “CI/F (apparent clearance values)” value [1] was 0.0146, the “Fibrillation pH 4.0 (Ac)” value [2] was “FND” and the “Fibrillation pH 7.0 (His)” value [2] was “FD”. The “Fibrillation pH 7.0 (Phos.)” value [2] was “FD”.
